Measured values published in patent US6479527B1, “Bicyclic pyrrole derivatives as MCP-1 inhibitors” (AstraZeneca UK Limited, priority 1998, dated 2002).
Like-named read-outs stand apart in the source and are kept apart here. Values belong to the molecule of their own block, whether it stands above or below them.

Assays:
[1] = test system: RANTES induced chemotaxis of THP-1 cells; test: RANTES chemotaxis assay; format: cell-based; settings: Homo sapiens, 2 nM RANTES as chemoattractant
Experimental: (§1) c) hMCP-1 Mediated Chemotaxis and RANTES Assay.
(§2) In vitro chemotaxis assays were performed using either the human monocytic cell line THP-1 or peripheral blood mixed monocytes obtained from fresh human blood purified by erythrocyte sedimentation followed by density gradient centrifugation over 9.6% (w/v) sodium metrizoate and 5.6% (w/v) polysaccharide, density 1.077 g/ml (Lymphoprep™ Nycomed). Cell migration through polycarbonate membranes was measured by enumerating those passing through either directly by Coulter counting or indirectly by use of a colourimetric viability assay measuring the cleavage of a tetrazolium salt by the mitochondrial respiratory chain (Scudiero D. A. et al. 1988, Cancer Res., 48, 4827-4833).
(§3) Chemoattractants were introduced into a 96-well microtiter plate which forms the lower well of a chemotaxis chamber fitted with a PVP-free 5 μm poresize polycarbonate adhesive framed filter membrane (NeuroProbe MB series, Cabin John, Md. 20818, USA) according to the manufacturer's instructions. The chemoattractant was diluted as appropriate in synthetic cell culture medium, RPMI 1640 (Gibco) or supplemented with 2 mM glutamine and 0.5% BSA, or alternatively with HBSS with Ca2+ and Mg2+ without Phenol Red (Gibco) plus 0.1% BSA. […] The plate was incubated at 37° C. for 3 h and the absorbance of the soluble formazan product was read on a microtitre plate reader at 450 nm. […]

MCP-1 receptor B (CCR2B) = biological target: T1, MCP-1 receptor B (CCR2B) (Homo sapiens, UniProt P41597); test: hMCP-1 receptor-binding assay
T1 construct: expressed in transfected cells; host or cells: CHO-K1 (clone 7, CHO-CCR2B), membrane fragments
T1 sequence (P41597 1-360 isoform P41597-2): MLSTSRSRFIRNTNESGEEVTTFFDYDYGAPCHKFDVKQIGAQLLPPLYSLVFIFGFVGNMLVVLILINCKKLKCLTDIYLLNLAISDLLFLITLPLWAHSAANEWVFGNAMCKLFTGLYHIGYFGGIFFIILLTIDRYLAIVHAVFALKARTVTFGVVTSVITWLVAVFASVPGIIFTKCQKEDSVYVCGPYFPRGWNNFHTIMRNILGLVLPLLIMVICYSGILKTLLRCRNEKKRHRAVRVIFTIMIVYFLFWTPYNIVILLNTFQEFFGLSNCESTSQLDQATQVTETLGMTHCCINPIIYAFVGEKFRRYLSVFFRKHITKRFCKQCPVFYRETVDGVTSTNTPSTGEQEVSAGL
Description: a) hMCP-1 Receptor-binding Assay i) Clonning and expression of hMCP-1receptor
The MCP-1 receptor B (CCR^2B) cDNA was cloned by PCR from THP-1 cell RNA using suitable oligonucleotide primers based on the published MCP-1 receptor sequences (Charo et al., 1994, Proc. Natl. Acad Sci. USA, 91, 2752). The resulting PCR products were cloned into vector PCR-II™ (InVitrogen, San Diego, Calif.). Error free CCR2B cDNA was subcloned as a Hind III-Not I fragment into the eukaryotic expression vector pCDNA3 (InVitrogen) to generate pCDNA3/CC-CKR2A and pCDNA3/CCR2B respectively.
Linearised pCDNA3/CCR2B DNA was transfected into CHO-K1 cells by calcium phosphate precipitation (Wigler et al., 1979, Cell, 16, 777). Transfected cells were selected by the addition of Geneticin Sulphate (G418, Gibco BRL) at 1 mg/ml, 24 hours after the cells had been transfected. Preparation of RNA and Northern blotting were carried out as described previously (Needham et al., 1995, Prot. Express. Purific., 6, 134). CHO-K1 clone 7 (CHO-CCR^2B) was identified as the highest MCP-1 receptor B expressor. […]
ii) Preparation of membrane fragments […]
^125I MCP-1 was prepared using Bolton and Hunter conjugation (Bolton et al., 1973, Biochem. J., 133, 529; Amersham International plc]. Equilibrium binding assays were carried out using the method of Ernst et al., 1994, J. Immunol., 152, 3541. Briefly, varying amounts of ^125I-labeled MCP-1 were added to […] of purified CHO-CCR2B cell membranes in […] of Binding Buffer. After 1 hour incubation at room temperature the binding reaction mixtures were filtered and washed 5 times through a plate washer (Packard Harvester Filtermate™ 196). Scintillation fluid (25 μl, Microscint™-20, a high efficiency liquid scintillation counting cocktail for aqueous samples) was added to each well and the plate was covered with plate sealer and counted (Packard Top Count™). […] Non-specific binding was determined by the inclusion of a 200-fold molar excess of unlabelled MCP-1 in the reaction. […]

[2] = test system: hMCP-1 mediated chemotaxis of THP-1 cells; test: hMCP-1 mediated chemotaxis assay; format: cell-based, human
Experimental: as §1, §2, §3

THP-1 cells = test: MCP-1 mediated calcium flux in THP-1 cells; format: cell-based, human; settings: stimulation of THP-1 cells with hMCP-1, approximate, from dose response curves; read-out: EC50 for transient rise in [Ca2+]i
Experimental: b) MCP-1 Mediated Calcium Flux in THP-1 Cells
The human monocytic cell line THP-1 was grown in a synthetic cell culture medium RPMI 1640 supplemented with 10% foetal calf serum, 2 mM glutamine and Penicillin-Streptomycin (at 50 μg streptomycin/ml, Gibco BRL). THP-1 cells were washed in HBSS (lacking Ca^2+ and Mg^2+) +1 mg/ml BSA and resuspended in the same buffer at a density of 3×10^6 cells/ml. The cells were then loaded with […]-FURA-2/AM for 30 min at 37° C., washed twice in HBSS, and resuspended at 1×10^6 cells/ml. […] The cuvette was placed in a fluorescence spectrophotometer (Perkin Elmer, Norwalk, Conn.) and preincubated for 4 min at 37° C. with stirring. Fluorescence was recorded over 70 sec and cells were stimulated by addition of hMCP-1 to the cuvette after 10 sec. [Ca^2+]i was measured by excitation at 340 nm and 380 nm alternately and subsequent measurement of the intensity of the fluorescence emission at 510 nm.
where the Kd for FURA-2 Ca^2+ complex at 37° C. was taken to be […]. Rmax is the maximal fluorescence ratio determined after addition of […] lonomycin, Rmin is the minimal ratio determined by the subsequent addition of a Ca^2+ free solution containing 5 mM EGTA, and Sf2/Sb2 is the ratio of fluorescence values at 380 nm excitation determined at Rmin and Rmax, respectively. […]

IC50 [1]: 2660 nM
Molecule: O=C(O)c1cc2sccc2n1Cc1ccc(Cl)c(Cl)c1 [Compound No. 8, 4-(3,4-Dichlorobenzyl)thieno[3,2-b]pyrrole-5-carboxylic acid]

IC50 (MCP-1 receptor B (CCR2B); competition with 100 pM labelled MCP-1, CHO-CCR2B cell membranes, read-out: IC50 in the hMCP-1 receptor binding assay): 8300 nM
Molecule: Nc1cccc(-c2cc3c(cc(C(=O)O)n3Cc3ccc(Cl)c(Cl)c3)s2)c1 [Compound No. 13, 2-(3-Aminophenyl)-4-(3,4-dichlorobenzyl)thieno[3,2-b]pyrrole-5-carboxylic acid]

IC50 ([2]; Homo sapiens, 1 nM MCP-1 as chemoattractant, THP-1 cells): 1660 nM
Molecule: O=C(O)c1cc2occc2n1S(=O)(=O)c1ccc(Cl)c(Cl)c1 [Compound No. 20, 4-(3,4-Dichlorobenzenesulfonyl)furo[3,2-b]pyrrole-5-carboxylic acid]

EC50 (THP-1 cells): ~2 nM
IC50 (MCP-1 receptor B (CCR2B); membrane fragments from CHO-CCR2B cells, cold competition with 125I-labeled MCP-1, read-out: IC50 of MCP-1 binding to CCR2B): 0.11 nM
Kd (MCP-1 receptor B (CCR2B); membrane fragments from CHO-CCR2B cells, equilibrium binding): 0.12 nM
Molecule: MCP-1: Monocyte Chemoattractant Protein-1, a C—C chemokine; ligand of the CCR2 receptor
concentration of maximal cell migration (biphasic response) ([2]; hMCP-1 as chemoattractant, concentration dependent cell migration): 0.5-1.0 nm
